System: Karenia brevis (KB) cells
Experiment: SYTOX-Green assay of cell-membrane integrity
Type: cell-based
Procedure: SYTOX-Green Assay. The effects of treatments on the cells were also investigated utilizing the SYTOX-green assay, a technique designed to evaluate cell-membrane integrity. The SYTOX-green dye selectively permeates through compromised cell membranes and produces green-fluorescent color upon interaction with nucleic acid. […] For the assay protocol, a 1.0 ml aliquot of the cell suspension was incubated with 10 μl of the dye solution ([…]) for 15 minutes in the dark, resulting in a final dye concentration of […]. The dye concentration and the incubation time were validated by the heat-treated K. brevis cells for 1 h at 60° C. The cell suspension was then transferred in an optically clear well plate for visualization under an inverted fluorescence microscope (Ex: 465-495 nm; Em: 515 nm, long pass).

[1] = gallic acid 5 mg/mL in the foam stock solution, Tween 80 1.25 mg/mL

O.O=C(O)c1cc(O)c(O)c(O)c1 [gallic acid, Gallic acid monohydrate]
time by which non-viable cells become lysed (loss of green fluorescence) [1]: ≤ 6 h
time to membrane compromised cells (SYTOX-green) [1]: ≤ 3 h
cell green fluorescence (lysis), SYTOX-green (gallic acid in foam, 24 hours): almost total loss of cell green fluorescence
